Test results as given in PMC7459823, “Characterization of Five Novel Anti-MRSA Compounds Identified Using a Whole-Animal Caenorhabditis elegans/Galleria mellonella Sequential-Screening Approach” (Antibiotics, 2020).
In brackets after ≈: the same amount, converted by molar mass. Like-named read-outs stand apart in the source and are kept apart here.

Tests used:
[1] = tested on: MRSA MW2 infection of Galleria mellonella larvae; experiment: G. mellonella–MRSA survival assay; assay type: in vivo; settings: larvae infected with MRSA MW2 5 × 10^5 CFU, compound 10 mg/kg 2 h after infection, monitored 120 h; untreated 1 day
Method: Larvae were infected with MRSA MW2 (5 × 10^5 CFU) in the left rear proleg, and after two hours, the compounds were introduced separately at 10 mg/kg into the right rear proleg and larvae survival was monitored for 120 h.
Assays were performed as described previously. Briefly, sixteen randomly selected G. mellonella larvae (Vanderhorst, Inc., St. Mary’s, OH, USA) between 300–350 mg were used for each test group. MRSA-MW2 was grown in Tryptic Soy Broth (TSB), washed with phosphate buffered saline (PBS, pH = 7.4), and diluted to OD600 = 0.3 before inoculation into G. mellonella larvae. A 10-μL inoculum was injected into the last left proleg using a 10-μL Hamilton syringe. After 2 h, compounds were administered into the last right proleg and larvae were incubated at 37 °C. G.mellonella survival was monitored for 120 h, and death was confirmed when there was no response. Killing curves and differences in survival were analyzed by the Kaplan–Meier method using GraphPad Prism version 8 (GraphPad Software, La Jolla, CA, USA). Statistical analysis (Kruskal–Wallis test) was carried out using the same program.

[2] = tested on: MRSA MW2; experiment: Sytox green membrane permeabilization; assay type: cell-based, Staphylococcus aureus; settings: compounds at 64 µg/mL, monitored over 1 h
Method: To determine whether the compounds target bacterial membranes, MRSA MW2 was treated with the compounds and uptake of the membrane-impermeable DNA-binding fluorescent dye Sytox green was monitored over 1 h (Figure 4).
Sytox Green (Life Technologies, Needham, MA, USA) membrane permeabilization assays were performed as previously described. The experiments were carried out in duplicate in 96-well plates. Cells were grown to log phase and were harvested by centrifuging at 3700× g for 5 min. The cells were washed twice with PBS and resuspended to OD600 = 0.2, following which 5 µM Sytox green was added to the cells and the bacteria-dye mixture were incubated in the dark for 30 mins.
Cell suspensions (50 µL) were added to 50 µL of test compounds (64 µg/mL in PBS) and fluorescence intensity was measured (excitation 485 nm, emission 530 nm) periodically over 60 min.

[3] = tested on: MRSA-MW2 infection of C. elegans; experiment: C. elegans–MRSA-MW2 high-throughput screen (Z-score, alive versus dead worms); assay type: in vivo, Caenorhabditis elegans; settings: screening concentration 2.86 µg/mL, hits Z > 2
Text: The five compounds: (4,4′,4″-(4-propyl-[1H]-pyrazole-1,3,5-triyl)trisphenol, PPT; (1S,2S)-2-[2-[[3-(1H-benzimidazol-2-yl)propyl]methylamino]ethyl]-6-fluoro-1,2,3,4-tetrahydro-1-(1-methylethyl)-2- naphthalenyl cyclopropanecarboxylate dihydrochloride, NNC; 4,5,6,7-tetrabromobenzotriazole, TBB; 3-[2-[2-chloro-4-[3-(2,6-dichlorophenyl)-5-(1-methylethyl)-4-isoxazolyl]methoxy]phenyl] ethenyl] benzoic acid, GW4064; and N-(cyclopropylmethoxy)-3,4,5-trifluoro-2-[(4-iodo-2-methylphenyl)amino] benzamide, PD198306) were purchased from Tocris Bioscience at the following levels of purity: PPT: >99.7%, NNC: >98%, TBB: >99%, GW4064: >97%, and PD198306: 98.8%. […] Hits were identified based on Z-scores. Z-scores are calculated from the ratio of alive versus dead worms after treatment with test compounds and represents the number of standard deviations (SD) the test compound differs from the mean using the formula Z = (x − μ)/σ; where x is the raw sample score, μ is the mean of the population and σ is the standard deviation of the population. Samples with Z > 2σ are considered hits.

[4] = tested on: Pseudomonas aeruginosa; experiment: Broth microdilution MIC, Pseudomonas aeruginosa; assay type: cell-based
Method: (§1) In vitro antibacterial activities were determined using the broth microdilution method. Assays were performed as described in Clinical and Laboratory Standards Institute protocols in triplicate using cation-adjusted Muller–Hinton broth (Becton Dickinson and Company, Franklin Lakes, NJ, USA) in 96-well plates with a total assay volume of 100 µL. Two-fold serial dilutions of test compounds were prepared over the concentration range of 1–64 µg/mL. The bacterial concentration was adjusted to OD600 = 0.06. […] A 10 µL aliquot from each well in the MIC assays was plated onto Muller–Hinton agar (Becton Dickinson and Company, Franklin Lakes, NJ, USA) and incubated overnight at 37 °C. The lowest concentration of compound for which no growth was observed on agar plates was reported as the minimal bactericidal concentration (MBC).

[5] = tested on: Acinetobacter baumannii; experiment: Broth microdilution MIC, Acinetobacter baumannii; assay type: cell-based
Method: as §1

[6] = tested on: A549; experiment: MTT cytotoxicity, A549; settings: A549, 24 hr
Method: (§2) Mammalian cell lines HepG2 (hepatic cells), A549 (epithelial cells), and MKN-28 (gastric cells) were used to measure the anti-proliferative properties of test compounds, as described elsewhere [28]. Cells were grown in Dulbecco’s Modified Eagle Medium (DMEM) (Gibco, Waltham, MA, USA) supplemented with 10% Fetal Bovine Serum (FBS) (Gibco, Waltham, MA, USA) and 1% penicillin/streptomycin (Gibco, Waltham, MA, USA) and maintained at 37 °C in 5% CO2. After harvesting, the cells were suspended in DMEM and 100 µL was added to the wells of 96-well plates. The test compounds were serially diluted in serum and antibiotic free DMEM, added to the monolayer of cells, and incubated at 37 °C in 5% CO2 for 24 hr. Percentage survival was calculated by comparison to DMSO-treated vehicle controls. Assays were carried out in triplicate.

[7] = tested on: MRSA MW2; experiment: Broth microdilution antibacterial susceptibility (MIC/MBC), MRSA MW2; assay type: cell-based, Staphylococcus aureus
Method: as §1

[8] = tested on: MRSA-MW2; experiment: Checkerboard synergy assay (FIC index); assay type: cell-based, Staphylococcus aureus; settings: synergy FIC ≤ 0.5
Method: The combination of two antibiotics with different modes of action can reduce bacterial resistance and sometimes even restore clinical efficacy of an antibiotic that has lost effectiveness. The five compounds were tested against MRSA-MW2 in the presence of five clinical antibiotics from different classes (i.e., polymyxin B, gentamycin, erythromycin, doxycycline, and oxacillin).
Antibacterial synergy for combinations of the compounds with each other and with clinical antibiotics (doxycycline, gentamicin, polymyxin-B, oxacillin, and erythromycin) was measured using checkerboard assays. In short, Cultures of MRSA-MW2 were adjusted to OD600 = 0.06 and one compound was arrayed horizontally and other vertically in 96 well plates. The assays were carried out in triplicate, exactly as described for the antibacterial susceptibility assays. The inhibitory effects of compound combinations were evaluated using the Fractional Inhibitory Concentration (FIC) index, derived from the formula:FIC index = FICA + FICB = [A]/MICA + [B]/MICB
MIC of substance A tested in combination /MIC of substance A tested alone + MIC of substance B tested in combination/MIC of substance B tested alone. Synergy is indicated when FIC ≤ 0.5, indifference when 0.5 ≤ FIC ≤ 4, and antagonism when FIC > 4. Experiments were performed in duplicate and report the average FIC index.

[9] = tested on: HepG2; experiment: MTT cytotoxicity, HepG2; settings: HepG2, 24 hr
Method: as §2

[10] = tested on: Klebsiella pneumoniae; experiment: Broth microdilution MIC, Klebsiella pneumoniae; assay type: cell-based
Method: as §1

[11] = tested on: Enterobactor aerogens; experiment: Broth microdilution MIC, Enterobactor aerogens; assay type: cell-based
Method: as §1

[12] = tested on: clinical S. aureus isolate BF3; experiment: Broth microdilution MIC, clinical S. aureus isolate BF3; assay type: cell-based; settings: Staphylococcus aureus
Method: as §1

[13] = tested on: Enterococcus faecium; experiment: Broth microdilution MIC, Enterococcus faecium; assay type: cell-based
Method: as §1

[14] = tested on: clinical S. aureus isolate BF2; experiment: Broth microdilution MIC, clinical S. aureus isolate BF2; assay type: cell-based; settings: Staphylococcus aureus
Method: as §1

[15] = tested on: clinical S. aureus isolate BF4; experiment: Broth microdilution MIC, clinical S. aureus isolate BF4; assay type: cell-based; settings: Staphylococcus aureus
Method: as §1

[16] = tested on: MKN-28; experiment: MTT cytotoxicity, MKN-28; settings: MKN-28, 24 hr
Method: as §2

[17] = tested on: clinical S. aureus isolate BF1; experiment: Broth microdilution MIC, clinical S. aureus isolate BF1; assay type: cell-based; settings: Staphylococcus aureus
Method: as §1

[18] = tested on: HVA currents; parameters: method as in PMID 14718587; settings: INS-1 cells; read-out: IC50 for inhibition of HVA currents; cited from earlier work
[19] = tested on: Cav3.1 T-type channels; parameters: method as in PMID 14718587; settings: INS-1 cells; read-out: IC50 for inhibition of Cav3.1 T-type channels; cited from earlier work
[20] = Staphylococcus aureus, MRSA MW2, 18 h, 37 °C, read-out: MIC
[21] = Staphylococcus aureus, MRSA MW2, read-out: MBC
[22] = Staphylococcus aureus, stated in text across MRSA MW2 and four clinical S. aureus isolates, read-out: MIC against MRSA MW2 and the clinical isolates
[23] = Enterobactor aerogens, read-out: MIC

| MIC ([4]; read-out: MIC) | MIC ([5]; read-out: MIC) | MIC [7, 20] | MIC ([10]; read-out: MIC) | MIC [11, 23] | MIC ([12]; BF3, read-out: MIC) | MIC ([13]; read-out: MIC) | MIC ([14]; BF2, read-out: MIC) | MIC ([15]; BF4, read-out: MIC) | Compound | median post-infection survival [1] | cellular fluorescence (Sytox green uptake) [2] | Z-Score [3] | Eukaryotic cell cytotoxicity [6] | MBC [7, 21] | Fractional Inhibitory Concentration (FIC) Index ([8]; with Doxycycline) | Fractional Inhibitory Concentration (FIC) Index ([8]; with Erythromycin) | Fractional Inhibitory Concentration (FIC) Index ([8]; with Gentamycin) | Fractional Inhibitory Concentration (FIC) Index ([8]; with Oxacillin) | Fractional Inhibitory Concentration (FIC) Index ([8]; with Polymyxin B) | Eukaryotic cell cytotoxicity [9] | further results |
| --- | --- | --- | --- | --- | --- | --- | --- | --- | --- | --- | --- | --- | --- | --- | --- | --- | --- | --- | --- | --- | --- |
| > 64 µg/mL | > 64 µg/mL | 8 µg/mL (≈ 14.7 µM) | > 64 µg/mL | > 64 µg/mL | 8 µg/mL (≈ 14.7 µM) | 8 µg/mL (≈ 14.7 µM) | 4 µg/mL (≈ 7.37 µM) | 8 µg/mL (≈ 14.7 µM) | CC(C)c1onc(-c2c(Cl)cccc2Cl)c1COc1ccc(C=Cc2cccc(C(=O)O)c2)c(Cl)c1 [GW4064, 3-[2-[2-Chloro-4-[[3-(2,6-dichlorophenyl)-5-(1-methylethyl)-4-isoxazolyl]methoxy]phenyl]ethenyl]benzoic acid] | 2 days | no changes in cellular fluorescence | 3.28 | 16 µg/mL | > 64 µg/mL | 2.06 | 1.0 | 0.5 | 1.0 | 0.75 | 4 µg/mL | MBC ([7]; MRSA MW2): >64 µg/mL; MIC [7, 22]: 4 to 8 µg/mL (≈ 7.37 to 14.7 µM); Eukaryotic cell cytotoxicity [16]: 8 µg/mL; MIC ([17]; BF1, read-out: MIC): 4 µg/mL (≈ 7.37 µM) |
| > 64 µg/mL | > 64 µg/mL | 8 µg/mL | > 64 µg/mL | > 64 µg/mL | 4 µg/mL | 8 µg/mL | 2 µg/mL | 4 µg/mL | CC(C)[C@H]1c2ccc(F)cc2CC[C@@]1(CCN(C)CCCc1nc2ccccc2[nH]1)OC(=O)C1CC1.Cl.Cl [NNC, (1S,2S)-2-[2-[[3-(1H-Benzimidazol-2-yl)propyl]methylamino]ethyl]-6-fluoro-1,2,3,4-tetrahydro-1-(1-methylethyl)-2-naphthalenyl cyclopropanecarboxylate dihydrochloride] | 2 days | increases in cellular fluorescence | 5.83 | 16 µg/mL | > 64 µg/mL | 0.75 | 1.0 | 0.75 | 2.0 | 0.5 | 2 µg/mL | IC50 [18]: > 100 µM; MBC ([7]; MRSA MW2): >64 µg/mL; IC50 [19]: 6.8 µM; Eukaryotic cell cytotoxicity [16]: 8 µg/mL; MIC ([17]; BF1, read-out: MIC): 4 µg/mL |
|  |  |  |  |  |  |  |  |  | CN[C@H](CC(C)C)C(=O)N[C@H]1C(=O)N[C@@H](CC(N)=O)C(=O)N[C@H]2C(=O)N[C@H]3C(=O)N[C@H](C(=O)N[C@H](C(=O)O)c4cc(O)cc(O)c4-c4cc3ccc4O)[C@H](O)c3ccc(c(Cl)c3)Oc3cc2cc(c3O[C@@H]2O[C@H](CO)[C@@H](O)[C@H](O)[C@H]2O[C@H]2C[C@](C)(N)[C@H](O)[C@H](C)O2)Oc2ccc(cc2Cl)[C@H]1O [Vancomycin] |  |  |  |  |  |  |  |  |  |  |  | MIC [4]: > 64 µg/mL; MIC [5]: > 64 µg/mL; MBC ([7]; Staphylococcus aureus, MRSA): 8 µg/mL (≈ 5.52 µM); MIC ([7]; Staphylococcus aureus, MRSA, 18 h): 1 µg/mL (≈ 0.69 µM); MIC [10]: > 64 µg/mL; MIC [11]: > 64 µg/mL; MIC [12]: 2 µg/mL (≈ 1.38 µM); MIC [13]: 4 µg/mL (≈ 2.76 µM); MIC [14]: 2 µg/mL (≈ 1.38 µM); MIC [15]: 2 µg/mL (≈ 1.38 µM); MIC [17]: 2 µg/mL (≈ 1.38 µM) |
| > 64 µg/mL | > 64 µg/mL | 8 µg/mL (≈ 20.7 µM) | > 64 µg/mL | > 64 µg/mL | 8 µg/mL (≈ 20.7 µM) | 8 µg/mL (≈ 20.7 µM) | 8 µg/mL (≈ 20.7 µM) | 8 µg/mL (≈ 20.7 µM) | CCCc1c(-c2ccc(O)cc2)nn(-c2ccc(O)cc2)c1-c1ccc(O)cc1 [PPT, 4,4′,4″-(4-Propyl-[1H]-pyrazole-1,3,5-triyl)trisphenol] | 2 days | increases in cellular fluorescence | 5.54 | 16 µg/mL | 32 µg/mL (≈ 82.8 µM) | 0.5 | 0.75 | 1.0 | 1.0 | 2.0 | 8 µg/mL | MIC [7, 22]: 8 µg/mL (≈ 20.7 µM); Eukaryotic cell cytotoxicity [16]: 8 µg/mL; MIC ([17]; BF1, read-out: MIC): 8 µg/mL (≈ 20.7 µM) |
